Measurements reported in publication PMC8344375 (Biochemistry, 2015).
Where “and” joins values, the source holds several entries; their conditions need not be identical. Equal values may be shown once. Read-outs that look alike come from different tables or passages of the source.

Key:
wt Cb H-NOX [1] = format: binding
wt Tt H-NOX [2] = format: binding
wt Cb H-NOX [3] = conditions: cited from earlier work
wt Tt H-NOX [4] = conditions: cited from earlier work
[5] = tested on: 6c NO-heme-His complex in wt Cb H-NOX; format: binding, Clostridium botulinum
sGC = conditions: cited from earlier work

Question: Which results are given for [C-]#[O+] [CO, Carbon monoxide]?
Answer: koff (CO) (wt Cb H-NOX [1]): 1.0 s⁻¹; kon (CO) (wt Cb H-NOX [1]): 1.5e+06 M⁻¹ s⁻¹; Kd (wt Cb H-NOX [1]; read-out: KD (CO)): 670 nM; koff (CO) (wt Tt H-NOX [2]): 0.5 s⁻¹; kon (CO) (wt Tt H-NOX [2]): 3.3e+06 M⁻¹ s⁻¹; Kd (wt Tt H-NOX [2]; read-out: KD (CO)): 160 nM; kon (CO) (wt Cb H-NOX [3]): 1.5 × 10^6d M^−1 s^−1; koff (CO) (wt Tt H-NOX [4]): 3.56^g s^−1; kon (CO) (wt Tt H-NOX [4]): 4.1e+06 g/M/s and 2.18e+06 g/M/s

Question: With O=O [O2, oxygen] as the molecule, how does the Kd (wt Cb H-NOX [1]; read-out: KD (O2)) read?
Answer: The Kd was 53000 nM.

Question: And the “koff (O2)” value (wt Tt H-NOX [2])?
Answer: Its value is 1.9 s⁻¹.

Question: What about the “kon (O2)” value (wt Tt H-NOX [2]) of the same molecule?
Answer: The value was 4.3e+07 M⁻¹ s⁻¹.

Question: What about the Kd (wt Tt H-NOX [2]; read-out: KD (O2)) of the same molecule?
Answer: The Kd was 44 nM.

Question: What about the “koff (O2)” value (wt Tt H-NOX [4]) of the same molecule?
Answer: The value was 1.2^f s^−1 and 1.2^e s^−1.

Question: And the “kon (O2)” value (wt Tt H-NOX [4])?
Answer: The value was 2.5 × 10^7f M^−1 s^−1 and 1.36 × 10^7e M^−1 s^−1.

Question: What about the Kd (wt Tt H-NOX [4]; read-out: KD (O2)) of the same molecule?
Answer: Its Kd is 0.048 µM and 0.0897 µM.

Question: Which results are given for nitric oxide [NO]?
Answer: NO dissociation rate, fast phase (wt Cb H-NOX [1]): 0.011 s⁻¹; koff (NO) (wt Cb H-NOX [1]): 0.012 s⁻¹; koff of 5c NO-heme complex (wt Cb H-NOX [1]): 1.1 × 10^−3a s^−1; kon (NO) (wt Cb H-NOX [1]): 1.5e+08 M⁻¹ s⁻¹; Kd (wt Cb H-NOX [1]; read-out: KD (NO)): 0.08 nM; koff (NO) (wt Tt H-NOX [2]): 0.0034 s⁻¹; kon (NO) (wt Tt H-NOX [2]): 1.5e+08 M⁻¹ s⁻¹; Kd (wt Tt H-NOX [2]; read-out: KD (NO)): 0.023 nM; k2 (quaternary complex to 5c NO-heme) [5]: ~ 790 s^−1; Kd ([5]; read-out: KD (reaction I, NO binding to 6c NO-heme-His)): ~570 µM; Kd ([5]; read-out: KD of reaction I): 1100 µM; koff (NO) (wt Cb H-NOX [3]): 3 × 10^−6c s^−1; kon (NO) (wt Cb H-NOX [3]): ~ 10^8c M^−1 s^−1; koff for 5c NO-heme (sGC): 0.0006 s⁻¹; koff(NO) of 6c NO-sGC complex (sGC): 27 s⁻¹; Kd (sGC; read-out: KD(NO)(6c)): 0.054 µM; koff (NO) (wt Tt H-NOX [4]): 0.00056 s⁻¹
